Reference: ChEMBL document CHEMBL3046893, “Antimicrobial screening of novel synthesized benzimidazole nucleus containing 4-oxo-thiazolidine derivatives” (2012)
In brackets after ≈: the same amount, converted by molar mass.

Tests used:
Assay type in all cases: functional
Aspergillus clavatus = experiment: Antifungal activity against Aspergillus clavatus MTCC 1323
Aspergillus niger = experiment: Antifungal activity against Aspergillus niger MTCC 282
Candida albicans = experiment: Antifungal activity against Candida albicans MTCC 227
Staphylococcus aureus = experiment: Antibacterial activity against Staphylococcus aureus MTCC 96 after 24 to 48 hr by serial broth dilution method
Streptococcus pyogenes = experiment: Antibacterial activity against Streptococcus pyogenes MTCC 442 after 24 to 48 hr by serial broth dilution method
Escherichia coli = experiment: Antibacterial activity against Escherichia coli MTCC 443 after 24 to 48 hr by serial broth dilution method
Pseudomonas aeruginosa = experiment: Antibacterial activity against Pseudomonas aeruginosa MTCC 1688 after 24 to 48 hr by serial broth dilution method

| Compound | MIC (Aspergillus clavatus) | MIC (Aspergillus niger) | MIC (Candida albicans) | MIC (Staphylococcus aureus) | MIC (Streptococcus pyogenes; read-out: MIC) | MIC (Escherichia coli) | MIC (Pseudomonas aeruginosa) | MIC (Streptococcus pyogenes) |
| --- | --- | --- | --- | --- | --- | --- | --- | --- |
| COC1=CC(=O)C[C@@H](C)[C@]12Oc1c(Cl)c(OC)cc(OC)c1C2=O [GRISEOFULVIN] | 100 µg/mL (≈ 283 µM) | 100 µg/mL (≈ 283 µM) | 500 µg/mL (≈ 1420 µM) |  |  |  |  |  |
| Cc1ccc2nc(-c3ccccc3N3C(=O)CSC3c3ccc(O)cc3)[nH]c2c1 (stereo unspecified) | 1000 µg/mL (≈ 2490 µM) | 1000 µg/mL (≈ 2490 µM) | 1000 µg/mL (≈ 2490 µM) | 500 µg/mL (≈ 1250 µM) | 500 µg/mL (≈ 1250 µM) | 125 µg/mL (≈ 311 µM) | 250 µg/mL (≈ 623 µM) |  |
| CC1(C)S[C@@H]2[C@H](NC(=O)[C@H](N)c3ccccc3)C(=O)N2[C@H]1C(=O)O [AMPICILLIN] |  |  |  | 250 µg/mL (≈ 715 µM) | 100 µg/mL (≈ 286 µM) | 100 µg/mL (≈ 286 µM) | 100 µg/mL (≈ 286 µM) |  |
| COc1cc(C2SCC(=O)N2c2ccccc2-c2nc3ccc(C)cc3[nH]2)cc(OC)c1OC (stereo unspecified) | 1000 µg/mL (≈ 2100 µM) | 1000 µg/mL (≈ 2100 µM) | 500 µg/mL (≈ 1050 µM) | 500 µg/mL (≈ 1050 µM) | 250 µg/mL (≈ 526 µM) | 500 µg/mL (≈ 1050 µM) | 250 µg/mL (≈ 526 µM) |  |
| Cc1ccc2nc(-c3ccccc3N3C(=O)CSC3c3ccccc3Cl)[nH]c2c1 (stereo unspecified) | 1000 µg/mL (≈ 2380 µM) | 1000 µg/mL (≈ 2380 µM) | 1000 µg/mL (≈ 2380 µM) | 500 µg/mL (≈ 1190 µM) | 1000 µg/mL (≈ 2380 µM) | 1000 µg/mL (≈ 2380 µM) | 1000 µg/mL (≈ 2380 µM) |  |
| Cc1ccc2nc(-c3ccccc3N3C(=O)CSC3c3ccc(Cl)cc3Cl)[nH]c2c1 (stereo unspecified) | 500 µg/mL (≈ 1100 µM) | 500 µg/mL (≈ 1100 µM) | 250 µg/mL (≈ 550 µM) | 1000 µg/mL (≈ 2200 µM) |  | 62.5 µg/mL (≈ 138 µM) | 100 µg/mL (≈ 220 µM) | 500 µg/mL (≈ 1100 µM) |
| Cc1ccc2nc(-c3ccccc3N3C(=O)CSC3c3ccc(F)cc3)[nH]c2c1 (stereo unspecified) | 1000 µg/mL (≈ 2480 µM) | 500 µg/mL (≈ 1240 µM) | 500 µg/mL (≈ 1240 µM) | 250 µg/mL (≈ 620 µM) | 250 µg/mL (≈ 620 µM) | 250 µg/mL (≈ 620 µM) | 250 µg/mL (≈ 620 µM) |  |
| Cc1ccc2nc(-c3ccccc3N3C(=O)CSC3c3ccc([N+](=O)[O-])cc3[N+](=O)[O-])[nH]c2c1 (stereo unspecified) | 1000 µg/mL (≈ 2100 µM) | 1000 µg/mL (≈ 2100 µM) | 1000 µg/mL (≈ 2100 µM) | 62.5 µg/mL (≈ 131 µM) | 1000 µg/mL (≈ 2100 µM) | 62.5 µg/mL (≈ 131 µM) | 250 µg/mL (≈ 526 µM) |  |
| Cc1ccc2nc(-c3ccccc3N3C(=O)CSC3c3cccc([N+](=O)[O-])c3)[nH]c2c1 (stereo unspecified) | 1000 µg/mL (≈ 2320 µM) | 100 µg/mL (≈ 232 µM) | 100 µg/mL (≈ 232 µM) | 100 µg/mL (≈ 232 µM) | 62.5 µg/mL (≈ 145 µM) | 25 µg/mL (≈ 58.1 µM) | 250 µg/mL (≈ 581 µM) |  |
| Cc1ccc2nc(-c3ccccc3N3C(=O)CSC3c3ccccc3[N+](=O)[O-])[nH]c2c1 (stereo unspecified) | 1000 µg/mL (≈ 2320 µM) | 1000 µg/mL (≈ 2320 µM) | 1000 µg/mL (≈ 2320 µM) | 1000 µg/mL (≈ 2320 µM) | 250 µg/mL (≈ 581 µM) | 500 µg/mL (≈ 1160 µM) | 250 µg/mL (≈ 581 µM) |  |
| Cc1ccc2nc(-c3ccccc3N3C(=O)CSC3c3ccc([N+](=O)[O-])cc3)[nH]c2c1 (stereo unspecified) | 1000 µg/mL (≈ 2320 µM) | 1000 µg/mL (≈ 2320 µM) | 500 µg/mL (≈ 1160 µM) | 250 µg/mL (≈ 581 µM) | 250 µg/mL (≈ 581 µM) | 500 µg/mL (≈ 1160 µM) | 250 µg/mL (≈ 581 µM) |  |
| Cc1ccc2nc(-c3ccccc3N3C(=O)CSC3c3ccc(Cl)cc3)[nH]c2c1 (stereo unspecified) | 1000 µg/mL (≈ 2380 µM) | 500 µg/mL (≈ 1190 µM) | 500 µg/mL (≈ 1190 µM) | 100 µg/mL (≈ 238 µM) | 62.5 µg/mL (≈ 149 µM) | 125 µg/mL (≈ 298 µM) | 250 µg/mL (≈ 595 µM) |  |
| COc1ccc(C2SCC(=O)N2c2ccccc2-c2nc3ccc(C)cc3[nH]2)cc1OC (stereo unspecified) | 1000 µg/mL (≈ 2240 µM) | 1000 µg/mL (≈ 2240 µM) | 500 µg/mL (≈ 1120 µM) | 100 µg/mL (≈ 224 µM) | 1000 µg/mL (≈ 2240 µM) | 100 µg/mL (≈ 224 µM) | 250 µg/mL (≈ 561 µM) |  |
| Cc1ccc2nc(-c3ccccc3N3C(=O)CSC3c3cccc(O)c3)[nH]c2c1 (stereo unspecified) | 100 µg/mL (≈ 249 µM) | 1000 µg/mL (≈ 2490 µM) | 500 µg/mL (≈ 1250 µM) | 250 µg/mL (≈ 623 µM) | 125 µg/mL (≈ 311 µM) | 500 µg/mL (≈ 1250 µM) | 250 µg/mL (≈ 623 µM) |  |
